Test results as given in ChEMBL document CHEMBL1201862, “PubChem BioAssay data set” (2004).
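The compound was tested at five concentrations on cells cultured in 96-well plates, with a 48-hour exposure period. Here, GI50 denotes the concentration required for 50% inhibition of growth.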 The source made the active and inactive calls. No stated cut-off is given here; in the data, active = GI50 up to about 1.1 µM and inactive = higher.

What was measured:
Assay in all cases: DTP human tumour cell line panel, 48 h
ACHN = tested on: ACHN
EKVX = tested on: EKVX
HCC 2998 = tested on: HCC 2998
HL-60 = tested on: HL-60
HOP-62 = tested on: HOP-62
MOLT-4 = tested on: MOLT-4
Malme-3M = tested on: Malme-3M
OVCAR-4 = tested on: OVCAR-4
OVCAR-8 = tested on: OVCAR-8
RPMI-8226 = tested on: RPMI-8226
SF-268 = tested on: SF-268
SK-OV-3 = tested on: SK-OV-3
SNB-19 = tested on: SNB-19
SW-620 = tested on: SW-620
UO-31 = tested on: UO-31
HCT-15 = tested on: HCT-15

SMILES | GI50 (ACHN) | GI50 (EKVX) | GI50 (HCC 2998) | GI50 (HL-60) | GI50 (HOP-62) | GI50 (MOLT-4) | GI50 (Malme-3M) | GI50 (OVCAR-4) | GI50 (OVCAR-8) | GI50 (RPMI-8226) | GI50 (SF-268) | GI50 (SK-OV-3) | GI50 (SNB-19) | GI50 (SW-620) | GI50 (UO-31) | GI50 (HCT-15) [µM]
COc1cc(/C=C2/C(=O)N(C(=O)OCc3ccccc3)C(Cc3cc(OC)c(OC)c(C)c3OC)C(=O)N2Cc2ccccc2)c(OC)c(C)c1OC (configuration not stated) | > 100 µM (inactive) | > 100 µM (inactive) | > 100 µM (inactive) | 7.52 µM (inactive) | > 100 µM (inactive) | 8.09 µM (inactive) | 76.4 µM (inactive) | > 100 µM (inactive) | > 100 µM (inactive) | 20.9 µM (inactive) | > 100 µM (inactive) | > 100 µM (inactive) | > 100 µM (inactive) | > 100 µM (inactive) | > 100 µM (inactive) | 
CS/C(=N/C(=O)c1ccccc1)SCCS/C(=N\C(=O)c1ccccc1)SC | > 100 µM (inactive) | > 100 µM (inactive) | > 100 µM (inactive) | > 100 µM (inactive) | 62.2 µM (inactive) | > 100 µM (inactive) | > 100 µM (inactive) | 25 µM (inactive) | > 100 µM (inactive) | > 100 µM (inactive) | > 100 µM (inactive) |  | > 100 µM (inactive) | > 100 µM (inactive) | > 100 µM (inactive) | > 100
COc1cc2c(c(OC)c1OC)-c1[nH]ncc1CC2 | > 100 µM (inactive) | > 100 µM (inactive) | > 100 µM (inactive) | > 100 µM (inactive) | > 100 µM (inactive) | > 100 µM (inactive) | > 100 µM (inactive) |  | > 100 µM (inactive) |  | > 100 µM (inactive) | > 100 µM (inactive) | > 100 µM (inactive) | > 100 µM (inactive) | > 100 µM (inactive) | > 100
Cc1ccc(Sc2cc([N+](=O)[O-])cc(Sc3ccc(C)cc3)c2Sc2ccc(C)cc2)cc1 | > 100 µM (inactive) | > 100 µM (inactive) | > 100 µM (inactive) | > 100 µM (inactive) | > 100 µM (inactive) | 34.1 µM (inactive) | > 100 µM (inactive) |  | 74.6 µM (inactive) | > 100 µM (inactive) | > 100 µM (inactive) |  | 66.8 µM (inactive) | > 100 µM (inactive) | > 100 µM (inactive) | > 100
COC(=O)C1=C(SC)SC2(C(=O)OC)C3C=C(C)C4C(N13)C42C(=O)OC (configuration not stated) | > 100 µM (inactive) | > 100 µM (inactive) | > 100 µM (inactive) | > 100 µM (inactive) | > 100 µM (inactive) | > 100 µM (inactive) | > 100 µM (inactive) |  | > 100 µM (inactive) | > 100 µM (inactive) | > 100 µM (inactive) | > 100 µM (inactive) | > 100 µM (inactive) | > 100 µM (inactive) | > 100 µM (inactive) | > 100
CC(C)c1cccc(C(C)C)c1N1C(=O)C(=O)C(c2nc3ccccc3o2)C(=O)C1=O | > 100 µM (inactive) | > 100 µM (inactive) | 24.3 µM (inactive) | 30.3 µM (inactive) | > 100 µM (inactive) |  | 91.4 µM (inactive) | 78.2 µM (inactive) | > 100 µM (inactive) | 35.4 µM (inactive) | 47.2 µM (inactive) | > 100 µM (inactive) | > 100 µM (inactive) | 48.1 µM (inactive) | 94 µM (inactive) | 49.7
COC1=CC(O)(CC(N)=O)c2ccccc2C1=O (configuration not stated) | > 100 µM (inactive) | > 100 µM (inactive) | > 100 µM (inactive) | > 100 µM (inactive) | > 100 µM (inactive) | > 100 µM (inactive) | > 100 µM (inactive) | > 100 µM (inactive) | > 100 µM (inactive) | > 100 µM (inactive) | > 100 µM (inactive) | > 100 µM (inactive) | > 100 µM (inactive) | > 100 µM (inactive) | > 100 µM (inactive) | > 100
C=C(CCCO)[C@@H]1CC[C@@](C)(O)[C@H]1C | > 100 µM (inactive) | > 100 µM (inactive) | > 100 µM (inactive) |  |  | > 100 µM (inactive) | > 100 µM (inactive) | > 100 µM (inactive) | > 100 µM (inactive) | > 100 µM (inactive) |  | 0.885 µM (active) | > 100 µM (inactive) | > 100 µM (inactive) | > 100 µM (inactive) | > 100
COc1cc(/C=C2\C(=O)N(C(=O)Cc3ccccc3)N=C2C)cc(OC)c1OC | > 100 µM (inactive) | > 100 µM (inactive) | > 100 µM (inactive) | > 100 µM (inactive) | > 100 µM (inactive) | > 100 µM (inactive) | > 100 µM (inactive) | > 100 µM (inactive) | > 100 µM (inactive) | > 100 µM (inactive) | > 100 µM (inactive) |  | > 100 µM (inactive) | > 100 µM (inactive) | > 100 µM (inactive) | > 100
